Data taken from patent publication US12065442B2, “Tropomyosin receptor kinase (TRK) degradation compounds and methods of use” (Cullgen (Shanghai), Inc., priority 2018, dated 2024).
“Also recorded” adds a separate entry of the source.

Test system: KM12 cells
Assay: Cell viability assay (CellTiter-Glo) in KM12 cells
Format: cell-based
Conditions: 500 nM, 12-point 2-fold serial dilution, 3 days (FIG. 4A)

Row | Compound | viability of KM12 cells
1 | O=C1CCC(N2C(=O)c3cccc(NCCOCCOCCOCCC(=O)N4CCN(c5ccc(C(=O)Nc6n[nH]c7ccc(Cc8cc(F)cc(F)c8)cc67)c(NC6CCOCC6)c5)CC4)c3C2=O)C(=O)N1 (stereo not drawn) [CPD-057, N-(5-(3,5-Difluorobenzyl)-1H-indazol-3-yl)-4-(4-(3-(2-(2-(2-((2-(2,6-dioxopiperidin-3-yl)-1,3-dioxoisoindolin-4-yl)amino)ethoxy)ethoxy)ethoxy)propanoyl)piperazin-1-yl)-2-((tetrahydro-2H-pyran-4-yl)amino)benzamide] | inhibited the viability; also recorded: dose-dependently suppressed viability

Same assay, conditions: Homo sapiens, 72 h; Table 2; KM12 cell viability, CellTiter-Glo, 3 days; read-out: IC50

Row | Compound | IC50 [nM]
2 | O=C1CCC(N2C(=O)c3cccc(NCCOCCOCCOCCC(=O)N4CCN(c5ccc(C(=O)Nc6n[nH]c7ccc(Cc8cc(F)cc(F)c8)cc67)c(NC6CCOCC6)c5)CC4)c3C2=O)C(=O)N1 (stereo not drawn) [CPD-057, N-(5-(3,5-Difluorobenzyl)-1H-indazol-3-yl)-4-(4-(3-(2-(2-(2-((2-(2,6-dioxopiperidin-3-yl)-1,3-dioxoisoindolin-4-yl)amino)ethoxy)ethoxy)ethoxy)propanoyl)piperazin-1-yl)-2-((tetrahydro-2H-pyran-4-yl)amino)benzamide] | 6.4
3 | O=C(CN1CCN(c2cccc(-c3cnc4ccc(N5CCC[C@@H]5c5cccc(F)c5)nn34)n2)CC1)NCCOCCOCCOCCNc1cccc2c1C(=O)N(C1CCC(=O)NC1=O)C2=O (stereo partly drawn) [CPD-059, N-(2-(2-(2-(2-((2-(2,6-dioxopiperidin-3-yl)-1,3-dioxoisoindolin-4-yl)amino)ethoxy)ethoxy)-ethoxy)ethyl)-2-(4-(6-(6-((R)-2-(3-fluorophenyl)pyrrolidin-1-yl)imidazo[1,2-b]pyridazin-3-yl)pyridin-2-yl)piperazin-1-yl)acetamide] | 6
4 | Cc1ncsc1-c1ccc(CNC(=O)[C@@H]2C[C@@H](O)CN2C(=O)[C@@H](NC(=O)CCCCCCCCC(=O)N2CCN(c3ccc(C(=O)Nc4n[nH]c5ccc(Cc6cc(F)cc(F)c6)cc45)c(NC4CCOCC4)c3)CC2)C(C)(C)C)cc1 [CPD-034, (2S,4R)-1-((S)-2-(10-(4-(4-((5-(3,5-Difluorobenzyl)-1H-indazol-3-yl)carbamoyl)-3-((tetrahydro-2H-pyran-4-yl)amino)phenyl)piperazin-1-yl)-10-oxodecanamido)-3,3-dimethylbutanoyl)-4-hydroxy-N-(4-(4-methylthiazol-5-yl)benzyl)pyrrolidine-2-carboxamide] | 300
5 | O=C1CCC(N2C(=O)c3cccc(NCCOCCOCCOCCOCCOCCC(=O)N4CCN(c5ccc(C(=O)Nc6n[nH]c7ccc(Cc8cc(F)cc(F)c8)cc67)c(NC6CCOCC6)c5)CC4)c3C2=O)C(=O)N1 (stereo not drawn) [CPD-054, N-(5-(3,5-difluorobenzyl)-1H-indazol-3-yl)-4-(4-(1-((2-(2,6-dioxopiperidin-3-yl)-1,3-dioxoisoindolin-4-yl)amino)-3,6,9,12,15-pentaoxaoctadecan-18-oyl)piperazin-1-yl)-2-((tetrahydro-2H-pyran-4-yl)amino)benzamide] | 13
6 | Cc1ncsc1-c1ccc(CNC(=O)[C@@H]2C[C@@H](O)CN2C(=O)[C@@H](NC(=O)CCCCCCCNC(=O)CN2CCN(c3ccc(C(=O)Nc4n[nH]c5ccc(Cc6cc(F)cc(F)c6)cc45)c(NC4CCOCC4)c3)CC2)C(C)(C)C)cc1 [CPD-061, (2S,4R)-1-((S)-2-(8-(2-(4-(4-((5-(3,5-Difluorobenzyl)-1H-indazol-3-yl)carbamoyl)-3-((tetrahydro-2H-pyran-4-yl)amino)phenyl)piperazin-1-yl)acetamido)octanamido)-3,3-dimethylbutanoyl)-4-hydroxy-N-(4-(4-methylthiazol-5-yl)benzyl)pyrrolidine-2-carboxamide] | > 1000

Same assay, conditions: Homo sapiens, 72 h; Table 3; KM12 cell viability, CellTiter-Glo, 3 days; read-out: IC50

Row | Compound | IC50 [nM]
7 | O=C1CCC(N2C(=O)c3ccc(NCCC(=O)N4CCN(c5ccc(C(=O)Nc6n[nH]c7ccc(Cc8cc(F)cc(F)c8)cc67)c(NC6CCOCC6)c5)CC4)cc3C2=O)C(=O)N1 (stereo not drawn) [TR-145, N-(5-(3,5-Difluorobenzyl)-1H-indazol-3-yl)-4-(4-(3-((2-(2,6-dioxopiperidin-3-yl)-1,3-dioxoisoindolin-5-yl)amino)propanoyl)piperazin-1-yl)-2-((tetrahydro-2H-pyran-4-yl)amino)benzamide] | 3.1
8 | O=C1CCC(N2C(=O)c3ccc(NCCCCCC(=O)N4CCN(c5cccc(-c6cnc7ccc(N8CCC[C@@H]8c8cccc(F)c8)nn67)n5)CC4)cc3C2=O)C(=O)N1 (stereo partly drawn) [TR-122, 2-(2,6-Dioxopiperidin-3-yl)-5-((6-(4-(6-(6-((R)-2-(3-fluorophenyl)pyrrolidin-1-yl)imidazo[1,2-b]pyridazin-3-yl)pyridin-2-yl)piperazin-1-yl)-6-oxohexyl)amino)isoindoline-1,3-dione] | 2.7
9 | O=C1CCC(N2C(=O)c3ccc(NCCOCCC(=O)N4CCN(c5cccc(-c6cnc7ccc(N8CCC[C@@H]8c8cccc(F)c8)nn67)n5)CC4)cc3C2=O)C(=O)N1 (stereo partly drawn) [TR-119, 2-(2,6-Dioxopiperidin-3-yl)-5-((2-(3-(4-(6-(6-((R)-2-(3-fluorophenyl)pyrrolidin-1-yl)imidazo[1,2-b]pyridazin-3-yl)pyridin-2-yl)piperazin-1-yl)-3-oxopropoxy)ethyl)amino)isoindoline-1,3-dione] | 1.6
10 | O=C(CN1CCN(c2cccc(-c3cnc4ccc(N5CCC[C@@H]5c5cccc(F)c5)nn34)n2)CC1)NCCCCCCNc1cccc2c1C(=O)N(C1CCC(=O)NC1=O)C2=O (stereo partly drawn) [TR-111, N-(6-((2-(2,6-dioxopiperidin-3-yl)-1,3-dioxoisoindolin-4-yl)amino)hexyl)-2-(4-(6-(6-((R)-2-(3-fluorophenyl)pyrrolidin-1-yl)imidazo[1,2-b]pyridazin-3-yl)pyridin-2-yl)piperazin-1-yl)acetamide] | 19.7
11 | O=C1CCC(N2C(=O)c3ccc(NCC4CN(c5cccc(-c6cnc7ccc(N8CCC[C@@H]8c8cccc(F)c8)nn67)n5)C4)cc3C2=O)C(=O)N1 (stereo partly drawn) [TR-179, 2-(2,6-Dioxopiperidin-3-yl)-5-(((1-(6-(6-((R)-2-(3-fluorophenyl)pyrrolidin-1-yl)imidazo[1,2-b]pyridazin-3-yl)pyridin-2-yl)azetidin-3-yl)methyl)amino)isoindoline-1,3-dione] | 23.4
12 | O=C(CN1CCN(c2cccc(-c3cnc4ccc(N5CCC[C@@H]5c5cccc(F)c5)nn34)n2)CC1)NCCCNc1ccc2c(c1)C(=O)N(C1CCC(=O)NC1=O)C2=O (stereo partly drawn) [TR-127, N-(3-((2-(2,6-dioxopiperidin-3-yl)-1,3-dioxoisoindolin-5-yl)amino)propyl)-2-(4-(6-(6-((R)-2-(3-fluorophenyl)pyrrolidin-1-yl)imidazo[1,2-b]pyridazin-3-yl)pyridin-2-yl)piperazin-1-yl)acetamide] | 2.7
13 | O=C(CN1CCN(c2cccc(-c3cnc4ccc(N5CCC[C@@H]5c5cccc(F)c5)nn34)n2)CC1)NCCCCCNc1cccc2c1C(=O)N(C1CCC(=O)NC1=O)C2=O (stereo partly drawn) [TR-103, N-(5-((2-(2,6-dioxopiperidin-3-yl)-1,3-dioxoisoindolin-4-yl)amino)pentyl)-2-(4-(6-(6-((R)-2-(3-fluorophenyl)pyrrolidin-1-yl)imidazo[1,2-b]pyridazin-3-yl)pyridin-2-yl)piperazin-1-yl)acetamide] | 13.5
14 | O=C(CN1CCN(c2cccc(-c3cnc4ccc(N5CCC[C@@H]5c5cccc(F)c5)nn34)n2)CC1)NCCCCCNc1ccc2c(c1)C(=O)N(C1CCC(=O)NC1=O)C2=O (stereo partly drawn) [TR-131, N-(5-((2-(2,6-dioxopiperidin-3-yl)-1,3-dioxoisoindolin-5-yl)amino)pentyl)-2-(4-(6-(6-((R)-2-(3-fluorophenyl)pyrrolidin-1-yl)imidazo[1,2-b]pyridazin-3-yl)pyridin-2-yl)piperazin-1-yl)acetamide] | 2.7
15 | O=C(CN1CCN(c2cccc(-c3cnc4ccc(N5CCC[C@@H]5c5cccc(F)c5)nn34)n2)CC1)NCCOCCOCCOCCNc1ccc2c(c1)C(=O)N(C1CCC(=O)NC1=O)C2=O (stereo partly drawn) [TR-129, N-(2-(2-(2-(2-((2-(2,6-dioxopiperidin-3-yl)-1,3-dioxoisoindolin-5-yl)amino)ethoxy)ethoxy)ethoxy)ethyl)-2-(4-(6-(6-((R)-2-(3-fluorophenyl)pyrrolidin-1-yl)imidazo[1,2-b]pyridazin-3-yl)pyridin-2-yl)piperazin-1-yl)acetamide] | 4.4
16 | O=C1CCC(N2C(=O)c3ccc(NCCOCCN4CCN(c5cccc(-c6cnc7ccc(N8CCC[C@@H]8c8cccc(F)c8)nn67)n5)CC4)cc3C2=O)C(=O)N1 (stereo partly drawn) [TR-176, 2-(2,6-Dioxopiperidin-3-yl)-5-((2-(2-(4-(6-(6-((R)-2-(3-fluorophenyl)pyrrolidin-1-yl)imidazo[1,2-b]pyridazin-3-yl)pyridin-2-yl)piperazin-1-yl)ethoxy)ethyl)amino)isoindoline-1,3-dione] | 18
17 | O=C(CN1CCN(c2ccc(C(=O)Nc3n[nH]c4ccc(Cc5cc(F)cc(F)c5)cc34)c(NC3CCOCC3)c2)CC1)NCCOCCOCCOCCNc1ccc2c(c1)C(=O)N(C1CCC(=O)NC1=O)C2=O (stereo not drawn) [TR-163, N-(5-(3,5-Difluorobenzyl)-1H-indazol-3-yl)-4-(4-(14-((2-(2,6-dioxopiperidin-3-yl)-1,3-dioxoisoindolin-5-yl)amino)-2-oxo-6,9,12-trioxa-3-azatetradecyl)piperazin-1-yl)-2-((tetrahydro-2H-pyran-4-yl)amino)benzamide] | 6.3
18 | O=C1CCC(N2C(=O)c3ccc(NCCCOCCN4CCN(c5cccc(-c6cnc7ccc(N8CCC[C@@H]8c8cccc(F)c8)nn67)n5)CC4)cc3C2=O)C(=O)N1 (stereo partly drawn) [TR-199] | 39.8
19 | O=C1CCC(N2C(=O)c3ccc(NCC4CCN(c5cccc(-c6cnc7ccc(N8CCC[C@@H]8c8cccc(F)c8)nn67)n5)CC4)cc3C2=O)C(=O)N1 (stereo partly drawn) [TR-178, 2-(2,6-Dioxopiperidin-3-yl)-5-(((1-(6-(6-((R)-2-(3-fluorophenyl)pyrrolidin-1-yl)imidazo[1,2-b]pyridazin-3-yl)pyridin-2-yl)piperidin-4-yl)methyl)amino)isoindoline-1,3-dione] | 67.7

Same assay, conditions: Homo sapiens, 72 h; Table 4; KM12 cell viability, CellTiter-Glo, 3 days; read-out: IC50

Row | Compound | IC50 [nM]
20 | Cn1c(=O)n(C2CCC(=O)NC2=O)c2cccc(OCCCN3CCN(c4cccc(-c5cnc6ccc(N7CCC[C@@H]7c7cccc(F)c7)nn56)n4)CC3)c21 (stereo partly drawn) [TR-245, 3-(4-(3-(4-(6-(6-((R)-2-(3-fluorophenyl)pyrrolidin-1-yl)imidazo[1,2-b]pyridazin-3-yl)pyridin-2-yl)piperazin-1-yl)propoxy)-3-methyl-2-oxo-2,3-dihydro-1H-benzo[d]imidazol-1-yl)piperidine-2,6-dione] | > 500
21 | O=C1CCC(N2C(=O)c3ccc(NCC(=O)NC4CN(c5cccc(-c6cnc7ccc(N8CCC[C@@H]8c8cccc(F)c8)nn67)n5)C4)cc3C2=O)C(=O)N1 (stereo partly drawn) [TR-213, 2-((2-(2,6-Dioxopiperidin-3-yl)-1,3-dioxoisoindolin-5-yl)amino)-N-(1-(6-(6-((R)-2-(3-fluorophenyl)pyrrolidin-1-yl)imidazo[1,2-b]pyridazin-3-yl)pyridin-2-yl)azetidin-3-yl)acetamide] | 22.7
